Legend:
[1] = Kinetic inertness of ^225Ac complexes: challenge with excess La^3+; assay type: physicochemical; conditions: 50-fold excess of La^3+; macropa 0.59 μM; RT; over 7 days
Experimental: Kinetic Inertness of ^225Ac Complexes of Macropa and DOTA.
General. Stock solutions of La(NO3)3 (0.001 M or 0.1 M) were prepared in H2O. To the radiolabeled samples containing macropa (10 μL of 10^−5M stock; 1.0×10^−10 moles) or DOTA (10 μL of 10^_3M stock; 1.0×10^−8 moles) and ^225Ac (10 μL, 26 kBq) in NH4OAc buffer (pH 6, 0.15 M, 150 μL), a 50-fold mole excess of La^3+ was added (5 μL of 0.001 M or 0.1 M stock were added to solutions containing macropa and DOTA, respectively). The solutions were kept at room temperature and analyzed by iTLC at several time points over the course of 8 days. The iTLC plates were developed using citric acid (0.05 M, pH 5) as the eluent. Under these conditions, [^225Ac(macropa)]^+ and [^225Ac(DOTA)]^− remained at the baseline (RF=0) and any unchelated ^225Ac (^225Ac-citrate) migrated with the solvent front (RF=1). Percent of complex remaining intact was calculated by integrating area under the peaks on the radiochromatogram and dividing the counts associated with the ^225Ac-complex (RF=0) by the total counts integrated along the length of the iTLC plate.
(§1) The long half-life of ^225Ac necessitates its stable complex retention in vivo to avoid off-target damage to normal tissues arising from the release of free ^225Ac^3+. Furthermore, the stability of ^225Ac complexes against transmetalation and transchelation needs to be high. […]

[2] = Stability of [^225Ac(macropa)]^+ in human serum; assay type: in vitro ADME
Experimental: Transmetalation by La^3+. [^225Ac(macropa)]^+ and [^225Ac(DOTA)] were prepared using 10^−5 M and 10^−3 M stock solutions (10 μL) of macropa and DOTA, respectively, to give final ligand concentrations of 5.9×10^−7 M (macropa) and 5.9×10^−5 M (DOTA). After confirming a radiochemical yield of >90% by TLC using 0.4 M sodium citrate (pH 4) containing 10% MeOH as the mobile phase, 160 μL of human serum (an equal volume based on labeling reaction volume) were added to each radiolabeled solution. A control solution was also prepared in which water was substituted for ligand. The solutions were monitored over the course of 8 days by iTLC. The plates were developed with EDTA (50 mM, pH 5) as the eluent. Under these conditions, [^225Ac(macropa)]^+ and [^225Ac(DOTA)]^− complexes remained at the baseline (RF=0) and any ^225Ac (^225Ac-EDTA) that had been transchelated by serum migrated with the solvent front (RF=1). Percent of complex remaining intact was calculated.
as §1, with “high. To determine the kinetic inertness, [^225Ac(macropa)]^+ was challenged with La^3+ because of the established high affinity of macropa for this metal ion.” for “high.”

O=C([O-])c1cccc(CN2CCOCCOCCN(Cc3cccc(C(=O)[O-])n3)CCOCCOCC2)n1.[225Ac+3] [[^225Ac(macropa)]^+]
^225Ac complex remaining intact (radio-TLC) [1]: 98%
time ^225Ac^3+ remains complexed in human serum (radio-TLC) [2]: at least 8 days
